Data: US20220339135A1, “COMPOSITIONS AND METHODS FOR MODULATING AN INFLAMMATORY RESPONSE” (Enzychem Lifesciences Corporation, priority 2019, published 2022)

What was measured:
[1] = system: TLR4/MD2 on the surface of Raw264.7 cells; assay: LPS-induced TLR4/MD2 internalization, confocal microscopy; format: cell-based; conditions: LPS/PLH compared to LPS treated cells
Description: Raw264.7 cells were divided into two groups: 1) LPS treated group and 2) LPS/PLAG treated group. For LPS treated group, cells were stimulated with LPS (100 ng/ml) for 0, 15, 30, 45, 60, 75, 90, 105, 120 minutes. For LPS/PLAG treatment, cells were pre-incubated with PLAG (100 μg/ml) for 1 hour and then stimulated with LPS (100 ng/ml) for 0, 15, 30, 45, 60, 75, 90, 105, 120 minutes. To detect TLR4/MD2 on the membrane surface, cells were fixed with 2% paraformaldehyde (Sigma-Aldrich) and were blocked with PBS containing 1% BSA (Gibco, Waltham, Mass., USA). They were incubated with rabbit anti-TLR4/MD2 antibody (Thermo) and Alexa488 conjugated anti-rabbit IgG (Invitrogen). For confocal microscopy analysis, cells were washed with PBS and mounted in DAPI-containing fluorescence microscopy mounting medium (Invitrogen). Samples were analyzed with a laser scanning confocal microscope (Carl Zeiss, Oberkochen, Germany).
Raw264.7 cells were divided into two groups: 1) LPS treated group and 2) LPS/PLAG treated group. […] These were analyzed by confocal microscopy. […]
To detect TLR4/MD2 on the membrane surface, cells were fixed with 2% paraformaldehyde (Sigma-Aldrich) and were blocked with PBS containing 1% BSA (Gibco, Waltham, Mass., USA). […] For confocal microscopy analysis, cells were washed with PBS and mounted in DAPI-containing fluorescence microscopy mounting medium (Invitrogen). […]

[2] = system: Pseudomonas aeruginosa strain K (PAK) in BALF; assay: PAK clearance in AC regimen-induced immunocompromised mice; format: in vivo; conditions: PLAG 250 mg/kg oral once daily 5 days, BALF 3 and 6 hours after infection
Description: To establish a chemotherapy-induced immunocompromised mice model, the mice were administered a single intravenous injection of 50 mg/kg cyclophosphamide and 2.5 mg/kg doxorubicin (AC regimen). After 5 days from the injection of AC regimen, blood samples were collected from an intra-orbital vein using EDTA capillary tubes, and the number of circulating neutrophils was measured by complete blood cell count (CBC) analysis using Mindray BC-5300 auto-hematology analyzer (Shenzhen Mindray Bio-medical Electronics, China). Pseudomonas aeruginosa strain K (PAK) was grown overnight in LB broth at 37° C. with agitation and then harvested by centrifugation at 13,000×g for 2 minutes. […] The diluted bacteria were administrated to the mice by intranasal injection. Bronchoalveolar lavage fluid (BALF) samples were collected from the PAK-infected mice at different time points after infection in normal mice model and in AC regimen-induced immunocompromised mice model. […] The number of viable bacteria in BALF was determined by counting the number of colonies formed in the plates. […] The BALF samples were harvested at 3 and 6 hours after the infection, and live PAK in BALF after AC regimen and AC regimen/PLAG treatment was determined by counting with colony-forming units (FIG. 6B).

IMQ-induced psoriasis = assay: IMQ-induced psoriasis-like skin inflammation in mice; format: in vivo; conditions: PLAG 250 mg/kg/day orally, 5 days
Excerpt: Vaseline (Unilever, United Kingdom) was used as a control vehicle cream. […] Control (non-treated) and IMQ-treated groups were administrated orally with the same PBS daily. Psoriasis was scored by a blinded investigator using published criteria based on the following parameters: erythema, scaling, and thickening. […] The tissue sections were stained with hematoxylin and eosin (H&E). For IHC analyses, back skin serial sections were cut and mounted on charged glass slides (Superfrost Plus; Fisher Scientific, Rochester, N.Y., USA). The sections were deparaffinized and then treated with 3% hydrogen peroxide in methanol to quench the endogenous peroxidase activity. […] The sections were incubated with the primary anti-mouse IL-17 (abcam) antibody (1:100) or rat anti-mouse neutrophil (NIMP-R14, Thermo Fisher Scientific Inc.) antibody (1:100) at 4° C. overnight. […] On Day 5, mice were sacrificed and the isolated tissues were analyzed (FIG. 10A). On Day 5, mice were sacrificed and the isolated back skin tissues of control, IMQ treated and IMQ/PLAG co-treated mice were analyzed (FIG. 10B). […] The scoring of control, IMQ treated, and IMQ/PLAG co-treated mice calculated by a blinded investigator using published criteria based on the following parameters: erythema, scaling, and thickening (FIG. 10C). IMQ-treated back skin and one ear were isolated and skin thickness was measured (FIGS. 10D and 10E). […]

SMILES	effect on TLR4/MD2 internalization and return to the surface [1]	bacterial clearance (live PAK CFU in BALF) [2]	IMQ-induced psoriasis symptoms (IMQ-induced psoriasis)
CCCCC/C=C\C/C=C\CCCCCCCC(=O)OC(CO)COC(=O)CCCCCCCCCCCCCCC (stereo not drawn) [PLH, palmitic linoleic hydroxyl glycerol, reference compound]	had no effect	–	–
CCCCC/C=C\C/C=C\CCCCCCCC(=O)OC(COC(C)=O)COC(=O)CCCCCCCCCCCCCCC (racemic) [PLAG, 1-palmitoyl-2-linoleoyl-3-acetylglycerol]	–	significantly accelerates	effectively resolved
